A word on the MIC: it is the smallest concentration in the dilution series that meets the test's criterion for growth inhibition.

Values after ≈ are worked out from the molar mass of the structure shown.

Drawing on US12637478B2, “Compound, preparation method thereof, and antibiotic composition comprising same” (priority 2020, dated 2026), this text covers MIC for 8 compounds.

In one assay the test system is E. faecalis^LinR. As to the kind of experiment: MIC by broth microdilution (aerobic pathogens), test strain 9. It is filed as cell-based, Linezolid resistant Enterococcus faecalis. The note with it: Enterococcus faecalis; test strain 9, E. faecalis^LinR (linezolid resistant); read-out: MIC. The method, then:
(§1) The antibacterial activity of the compounds of Examples 1 to 48 of the present invention against aerobic pathogens were evaluated by measuring the minimum concentration of the antibiotic capable of inhibiting bacterial growth by 90% compared to the growth of the non-drug treated control group. MIC was measured by the broth microdilution method based on CLSI standards [Reference: Clinical and Laboratory Standards Institute Document. (2000) Methods for Dilution Antimicrobial Susceptibility Test for Bacteria that Grow Aerobically-Fifth Edition: M7-A5. CLSI, Villanova, PA].
(§2) All 13 strains such as methicillin susceptible Staphylococcus aureus (MSSA), methicillin resistant Staphylococcus aureus (MRSA), Vancomycin resistant Staphylococcus aureus (VRSA), Staphylococcus epidermidis, methicillin resistant Staphylococcus epidermidis, Enterococcus faecalis, Vancomycin resistant Enterococcus faecalis, Enterococcus faecium, Vancomycin resistant Enterococcus faecium were used.
In general terms: In broth dilution the organism is exposed to a series of concentrations in liquid medium.

Assay [1] concerns S. aureus^MS. As to the kind of experiment: MIC by broth microdilution (aerobic pathogens), test strain 1. It is filed as cell-based. The settings on record: Staphylococcus aureus. The method, then: as §1, §2
For a further assay, the system named is E. faecalis. As to the kind of experiment: MIC by broth microdilution (aerobic pathogens), test strain 7. It is filed as cell-based. The note with it: Enterococcus faecalis; test strain 7, E. faecalis; read-out: MIC. The method, then:
as §1, §2

A further assay concerns S. epidermis. As to the kind of experiment: MIC by broth microdilution (aerobic pathogens), test strain 5. It is filed as cell-based. The note with it: Staphylococcus epidermidis; test strain 5, S. epidermis; read-out: MIC. The method, then:
as §1, §2

The next assay concerns S. epidermis^MR. Description: MIC by broth microdilution (aerobic pathogens), test strain 6. It is filed as cell-based, Methicillin resistant Staphylococcus epidermidis. The settings on record: Staphylococcus epidermidis; test strain 6, S. epidermis^MR (methicillin resistant); read-out: MIC. The method, then:
as §1, §2

Assay [2] concerns S. aureus^MS. As to the kind of experiment: MIC by broth microdilution (aerobic pathogens), test strain 2. It is filed as cell-based. The note with it: Staphylococcus aureus. The method, then: as §1, §2
A further assay deals with E. faecalis^VanA. Description: MIC by broth microdilution (aerobic pathogens), test strain 8. The note with it: Enterococcus faecalis; test strain 8, E. faecalis^VanA (vancomycin resistant); read-out: MIC. It is filed as cell-based, Vancomycin resistant Enterococcus faecalis. The method, then:
as §1, §2

A further assay deals with E. faecium^LinR. As to the kind of experiment: MIC by broth microdilution (aerobic pathogens), test strain 12. The format is cell-based, Linezolid resistant Enterococcus faecium. The settings on record: Enterococcus faecium; test strain 12, E. faecium^LinR (linezolid resistant); read-out: MIC. The method, then: as §1, §2
Another assay has as its system C. difficile 174. As to the kind of experiment: MIC by agar dilution against Clostridioides difficile, test strain 18. The note with it: test strain 18, C. difficile 174, anaerobic, agar dilution, read-out: MIC. The format is cell-based. (In general: In agar dilution the substance is mixed into plates at graded concentrations.)
A further assay has as its system C. difficile 152. Description: MIC by agar dilution against Clostridioides difficile, test strain 14. It is filed as cell-based. The settings on record: test strain 14, C. difficile 152, anaerobic, agar dilution, read-out: MIC.
The next assay relates to C. difficile 9689. Description: MIC by agar dilution against Clostridioides difficile, test strain 13. The format is cell-based. The settings on record: test strain 13, C. difficile 9689, anaerobic, agar dilution, read-out: MIC.
In the next assay the test system is C. difficile 161. Description: MIC by agar dilution against Clostridioides difficile, test strain 16. The format is cell-based. The note with it: test strain 16, C. difficile 161, anaerobic, agar dilution, read-out: MIC.
A further assay deals with C. difficile 181. Description: MIC by agar dilution against Clostridioides difficile, test strain 19. The settings on record: test strain 19, C. difficile 181, anaerobic, agar dilution, read-out: MIC. It is filed as cell-based.
Another assay concerns C. difficile 173. Description: MIC by agar dilution against Clostridioides difficile, test strain 17. It is filed as cell-based. The note with it: test strain 17, C. difficile 173, anaerobic, agar dilution, read-out: MIC.
The mark [3] stands for this setting: test strain 1, S. aureus^MS, read-out: MIC.
Setting [4] is: test strain 2, S. aureus^MS, read-out: MIC.

For the compound `C/C=C1\NC(=O)[C@H]([C@@H](C)O)NC(=O)c2csc(n2)-c2ccc(-c3nc(-c4nc(C(=O)NC5(C(=O)NCCN6CCN(CCC(=O)OC)CC6)CC5)cs4)cs3)nc2-c2csc(n2)[C@H]([C@@H](C)O)NC(=O)c2csc(n2)[C@H](C(C)C)NC(=O)c2csc1n2` [Compound 24], the MIC with E. faecalis^LinR was found to be 1 µg/mL (≈ 0.778 µM); in the assay on S. aureus^MS [1] (setting [3]), 0.5 µg/mL (≈ 0.389 µM); with E. faecalis it was 1 µg/mL (≈ 0.778 µM); in the assay on S. epidermis, 0.25 µg/mL (≈ 0.195 µM); with S. epidermis^MR, 1 µg/mL (≈ 0.778 µM); in the assay with S. aureus^MS [2] (setting [4]), 1 µg/mL (≈ 0.778 µM).

As to `C/C=C1\NC(=O)[C@H]([C@@H](C)O)NC(=O)c2csc(n2)-c2ccc(-c3nc(-c4nc(C(=O)NC5(C(=O)NCCN)CC5)cs4)cs3)nc2-c2csc(n2)[C@H]([C@@H](C)O)NC(=O)c2csc(n2)[C@H](C(C)C)NC(=O)c2csc1n2` [Compound 25], the MIC in the assay with S. aureus^MS [1] and against S. aureus^MS [2] was 1 µg/mL (≈ 0.885 µM) each time.

On to `C/C=C1\NC(=O)[C@H]([C@@H](C)O)NC(=O)c2csc(n2)-c2ccc(-c3nc(-c4nc(C(=O)NC5(C(=O)NCCCCCCB(O)O)CC5)cs4)cs3)nc2-c2csc(n2)[C@H]([C@@H](C)O)NC(=O)c2csc(n2)[C@H](C(C)C)NC(=O)c2csc1n2` [Compound 27], for which the MIC with E. faecalis^LinR stood at 0.5 µg/mL (≈ 0.412 µM); in the assay on S. aureus^MS [1] (setting [3]) it was 0.25 µg/mL (≈ 0.206 µM); with S. aureus^MS [2] (setting [4]) it was 0.5 µg/mL (≈ 0.412 µM).

On to `C/C=C1\NC(=O)[C@H]([C@@H](C)O)NC(=O)c2csc(n2)-c2ccc(-c3nc(-c4nc(C(=O)NC5(C(=O)NCCN6CCN(CCCC#N)CC6)CC5)cs4)cs3)nc2-c2csc(n2)[C@H]([C@@H](C)O)NC(=O)c2csc(n2)[C@H](C(C)C)NC(=O)c2csc1n2` [Compound 31], for which the MIC was determined as 0.5 µg/mL (≈ 0.395 µM) with S. aureus^MS [1] (setting [3]); 1 µg/mL (≈ 0.79 µM) in the assay with E. faecalis; 0.25 µg/mL (≈ 0.198 µM) with S. epidermis; 0.5 µg/mL (≈ 0.395 µM) in the assay on S. epidermis^MR; 1 µg/mL (≈ 0.79 µM) in the assay with E. faecalis^VanA; 1 µg/mL (≈ 0.79 µM) in the assay on S. aureus^MS [2] (setting [4]).

`C/C=C1\NC(=O)[C@H]([C@@H](C)O)NC(=O)c2csc(n2)-c2ccc(-c3nc(-c4nc(C(=O)NC5(C(=O)NCCN6CCN(C7CC7)CC6)CC5)cs4)cs3)nc2-c2csc(n2)[C@H]([C@@H](C)O)NC(=O)c2csc(n2)[C@H](C(C)C)NC(=O)c2csc1n2` [Compound 33]: the MIC in the assay with E. faecalis^LinR is 0.5 µg/mL (≈ 0.404 µM); in the assay with S. aureus^MS [1] (setting [3]), 1 µg/mL (≈ 0.807 µM); with S. epidermis, 1 µg/mL (≈ 0.807 µM); with S. epidermis^MR it was 0.5 µg/mL (≈ 0.404 µM).

`C/C=C(\NC(=O)c1csc(-c2csc(-c3ccc4c(n3)-c3csc(n3)[C@H]([C@@H](C)O)NC(=O)c3csc(n3)[C@H](C(C)C)NC(=O)c3csc(n3)/C(=C/C)NC(=O)[C@H]([C@@H](C)O)NC(=O)c3csc-4n3)n2)n1)C(=O)NCCCN1CCN(C(C)C)CC1` [Compound 34]: the MIC in the assay on S. aureus^MS [1] (setting [3]) came out at 0.5 µg/mL (≈ 0.399 µM); with E. faecalis, 1 µg/mL (≈ 0.797 µM); with S. epidermis it was 0.25 µg/mL (≈ 0.199 µM); with S. epidermis^MR, 0.5 µg/mL (≈ 0.399 µM); in the assay on E. faecalis^VanA it was 1 µg/mL (≈ 0.797 µM); with S. aureus^MS [2] (setting [4]) it was 1 µg/mL (≈ 0.797 µM).

Consider `C/C=C1\NC(=O)[C@H]([C@@H](C)O)NC(=O)c2csc(n2)-c2ccc(-c3nc(-c4nc(C(=O)NC5(C(=O)NCCN6C(=O)CSC6=O)CC5)cs4)cs3)nc2-c2csc(n2)[C@H]([C@@H](C)O)NC(=O)c2csc(n2)[C@H](C(C)C)NC(=O)c2csc1n2` [Compound 36], for which the MIC amounted to 0.25 µg/mL (≈ 0.203 µM) in the assay with S. aureus^MS [1] (setting [3]); 0.5 µg/mL (≈ 0.407 µM) in the assay on E. faecalis; 0.5 µg/mL (≈ 0.407 µM) with S. epidermis; 0.5 µg/mL (≈ 0.407 µM) with S. epidermis^MR; 0.5 µg/mL (≈ 0.407 µM) with S. aureus^MS [2] (setting [4]); 1 µg/mL (≈ 0.813 µM) with E. faecium^LinR.

`C/C=C1\NC(=O)[C@H]([C@@H](C)O)NC(=O)c2csc(n2)-c2ccc(-c3nc(-c4nc(C(=O)NC5(C(=O)NCc6ncc([N+](=O)[O-])n6C)CC5)cs4)cs3)nc2-c2csc(n2)[C@H]([C@@H](C)O)NC(=O)c2csc(n2)[C@H](C(C)C)NC(=O)c2csc1n2` [Compound 44]: the MIC in the assay with C. difficile 174 was found to be 0.5 µg/mL (≈ 0.408 µM); with C. difficile 152 it was 0.25 µg/mL (≈ 0.204 µM); with C. difficile 9689 it was 0.5 µg/mL (≈ 0.408 µM); in the assay on C. difficile 161, 0.25 µg/mL (≈ 0.204 µM); in the assay with C. difficile 181 it was 0.5 µg/mL (≈ 0.408 µM); with C. difficile 173, 0.5 µg/mL (≈ 0.408 µM).
